Legend:
[1] = test system: premenopausal females with FSAD and/or HSDD; test: Example 1: placebo-controlled at-home trial of subcutaneous bremelanotide, efficacy (SSEs, FSFI, FSDS-DAO); format: in vivo, human
Experimental: A multi-centered, placebo-controlled, randomized, parallel group trial with fixed dose levels and designed to identify appropriate doses of bremelanotide administered by subcutaneous injection in premenopausal females with FSAD and/or HSDD, under the conditions of home use, was conducted. […] Subjects who continued to qualify for the trial then received 2 single in-clinic doses of randomized treatment (double-blind; approximately one week apart), followed by 12 weeks of double-blind treatment at home (subjects self-administered treatment as needed). Subjects were randomized (1:1:1:1) to one of four study treatment groups (placebo or doses with 0.75, 1.25, or 1.75 mg net weight bremelanotide). Randomization occurred immediately prior to the first in-clinic dose of double-blind treatment. Study drug and placebo was provided as pre-filled syringes in 0.3 mL volume, with subjects instructed on self-administration into the anterior thigh or abdomen. Enrolled subjects were premenopausal women who met the diagnostic criteria for […], or mixed […], utilizing a diagnostic screening guide including categorization of the sexual dysfunction as both acquired (vs. lifelong) and generalized (vs. situational). Subjects enrolled had previously been sexually “functional;” that is, experienced sexual arousal during sexual activity and/or a normal level of desire at some point in the past for a period of at least 2 years. […] Enrolled subjects were provided with an electronic diary system (eDiary) with instructions to complete an FSEP-R questionnaire with each sexual encounter. At selected in-clinic visits, subjects completed other assessment questionnaires, including […]-DAO, […] and WITS-9. In addition, various vital sign measures were conducted and blood and urine samples collected at selected in-clinic visits. […] The measurement period was defined as the number of events during the last four weeks of treatment minus the number of events during the baseline period, with outcomes reported for pooled results of women taking the two highest bremelanotide dose levels versus placebo. […] The FSFI is a 19-item questionnaire which provides for an additional measurement of changes over a longer recall period. • FSFI total score improvement (mean change of 3.55 vs. 1.88, p=0.0017) • Reduced associated distress related to sexual dysfunction, as measured by the Female Sexual Distress Scale-DAO (FSDS-DAO). The FSDS-DAO 15-item questionnaire is designed to assess and quantify the change in personal distress associated with […]-DAO total score improvement (mean change of -11.1 vs. -6.8, p=0.036).

[2] = Example 1: plasma pharmacokinetics after in-clinic subcutaneous dose; format: in vivo, human
Experimental: Ambulatory blood pressure monitoring was conducted following both placebo and randomized treatment group in-clinic administrations. Three periods of ambulatory blood pressure monitoring were included, the first period was from before to 24 hours after a single, in-clinic dose of placebo (to establish a baseline); the second and third periods occurred from before to 24 hours after each of 2 single, in-clinic doses of double-blind treatment, administered within 14 days of each other. Blood samples for pharmacokinetic analysis were collected before and at 0.5, 1.0, and 2.0 hours after each in-clinic bremelanotide single-dose treatment (double-blind only), to permit analysis of concentration-response relationships.
Mean pharmacokinetic parameters were determined by bremelanotide dose and visit, including Cmax determinations (the highest ng/mL concentration at either 0.5 or 1 hour post administration) and AUC determinations at two hours and, for a subset of subjects in each group, at four hours.
The Cmax for the mean curve was calculated by averaging the concentrations at each time point (0.5, 1, 2 and 4 hours), and this is shown in FIG. 3.

[3] = test system: women diagnosed with sexual arousal disorder; conditions: single intranasal dose of 20 mg, cited from earlier work
[4] = pooled 1.25 mg and 1.75 mg doses, baseline to end of study

Structure (SMILES): CCCC[C@H](NC(C)=O)C(=O)N[C@H]1CC(=O)NCCCC[C@@H](C(=O)O)NC(=O)[C@H](Cc2c[nH]c3ccccc23)NC(=O)[C@H](CCCNC(=N)N)NC(=O)[C@@H](Cc2ccccc2)NC(=O)[C@H](Cc2c[nH]cn2)NC1=O [bremelanotide, Ac-Nle-cyclo(-Asp-His-D-Phe-Arg-Trp-Lys)-OH]
- efficacy on all key endpoints in HSDD-only and mixed HSDD/FSAD subgroups ([1]; 1.25 mg, 1.75 mg, and/or 1.25/1.75 mg pooled, exploratory analyses): statistically significant efficacy or a clinically significant trend versus placebo
- Satisfying Sexual Events (SSEs), mean at baseline ([1]; pooled 1.25 mg and 1.75 mg doses): 1.6
- FSDS-DAO total score improvement, mean change [1, 4]: −11.1
- FSFI total score improvement, mean change [1, 4]: 3.55
- increase in SSEs [1, 4]: 50%
- Satisfying Sexual Events (SSEs), mean at end of study ([1]; pooled 1.25 mg and 1.75 mg doses, last four weeks of treatment): 2.4
- most optimal dose for efficacy ([1]; subcutaneous): 1.75 mg
- women with end-of-study FSFI and FSDS-DAO total score levels above 26.5 and 18 ([1]; versus placebo, exploratory analysis): higher percentage of women
- AUC(0-2 h) % CV ([2]; 0.75 mg SC, Visit 5): 24%
- AUC(0-2 h) Max ([2]; 0.75 mg SC, Visit 5): 85 ng·h/mL
- AUC(0-2 h) Mean ([2]; 0.75 mg SC, Visit 5): 53 ng·h/mL
- AUC(0-2 h) Median ([2]; 0.75 mg SC, Visit 5): 52 ng·h/mL
- AUC(0-2 h) Min ([2]; 0.75 mg SC, Visit 5): 25 ng·h/mL
- AUC(0-4 h) % CV ([2]; 0.75 mg SC, Visit 5): 23%
- AUC(0-4 h) Max ([2]; 0.75 mg SC, Visit 5): 126 ng·h/mL
- AUC(0-4 h) Mean ([2]; 0.75 mg SC, Visit 5): 84 ng·h/mL
- AUC(0-4 h) Median ([2]; 0.75 mg SC, Visit 5): 80 ng·h/mL
- AUC(0-4 h) Min ([2]; 0.75 mg SC, Visit 5): 50 ng·h/mL
- Cmax % CV ([2]; 0.75 mg SC, Visit 5): 27%
- Cmax Max ([2]; 0.75 mg SC, Visit 5): 60 ng/mL
- Cmax Median ([2]; 0.75 mg SC, Visit 5): 36 ng/mL
- Cmax Min ([2]; 0.75 mg SC, Visit 5): 17 ng/mL
- AUC(0-2 h) % CV ([2]; 0.75 mg SC, Visit 7): 24%
- AUC(0-2 h) Max ([2]; 0.75 mg SC, Visit 7): 92 ng·h/mL
- AUC(0-2 h) Mean ([2]; 0.75 mg SC, Visit 7): 53 ng·h/mL
- AUC(0-2 h) Median ([2]; 0.75 mg SC, Visit 7): 52 ng·h/mL
- AUC(0-2 h) Min ([2]; 0.75 mg SC, Visit 7): 26 ng·h/mL
- AUC(0-4 h) % CV ([2]; 0.75 mg SC, Visit 7): 20%
- AUC(0-4 h) Max ([2]; 0.75 mg SC, Visit 7): 120 ng·h/mL
- AUC(0-4 h) Mean ([2]; 0.75 mg SC, Visit 7): 80 ng·h/mL
- AUC(0-4 h) Median ([2]; 0.75 mg SC, Visit 7): 79 ng·h/mL
- AUC(0-4 h) Min ([2]; 0.75 mg SC, Visit 7): 51 ng·h/mL
- Cmax % CV ([2]; 0.75 mg SC, Visit 7): 27%
- Cmax Max ([2]; 0.75 mg SC, Visit 7): 78 ng/mL
- Cmax Mean ([2]; 0.75 mg SC, Visit 7): 38 ng/mL
- Cmax Min ([2]; 0.75 mg SC, Visit 7): 20 ng/mL
- AUC(0-2 h) % CV ([2]; 1.25 mg SC, Visit 5): 25%
- AUC(0-2 h) Max ([2]; 1.25 mg SC, Visit 5): 148 ng·h/mL
- AUC(0-2 h) Mean ([2]; 1.25 mg SC, Visit 5): 86 ng·h/mL
- AUC(0-2 h) Median ([2]; 1.25 mg SC, Visit 5): 81 ng·h/mL
- AUC(0-2 h) Min ([2]; 1.25 mg SC, Visit 5): 42 ng·h/mL
- AUC(0-4 h) % CV ([2]; 1.25 mg SC, Visit 5): 20%
- AUC(0-4 h) Max ([2]; 1.25 mg SC, Visit 5): 187 ng·h/mL
- AUC(0-4 h) Median ([2]; 1.25 mg SC, Visit 5): 136 ng·h/mL
- AUC(0-4 h) Min ([2]; 1.25 mg SC, Visit 5): 86 ng·h/mL
- Cmax % CV ([2]; 1.25 mg SC, Visit 5): 31%
- Cmax Max ([2]; 1.25 mg SC, Visit 5): 126 ng/mL
- Cmax Mean ([2]; 1.25 mg SC, Visit 5): 60 ng/mL
- Cmax Min ([2]; 1.25 mg SC, Visit 5): 29 ng/mL
- AUC(0-2 h) % CV ([2]; 1.25 mg SC, Visit 7): 25%
- AUC(0-2 h) Max ([2]; 1.25 mg SC, Visit 7): 144 ng·h/mL
- AUC(0-2 h) Mean ([2]; 1.25 mg SC, Visit 7): 84 ng·h/mL
- AUC(0-2 h) Median ([2]; 1.25 mg SC, Visit 7): 84 ng·h/mL
- AUC(0-2 h) Min ([2]; 1.25 mg SC, Visit 7): 24 ng·h/mL
- AUC(0-4 h) % CV ([2]; 1.25 mg SC, Visit 7): 25%
- AUC(0-4 h) Max ([2]; 1.25 mg SC, Visit 7): 199 ng·h/mL
- AUC(0-4 h) Mean ([2]; 1.25 mg SC, Visit 7): 142 ng·h/mL
- AUC(0-4 h) Median ([2]; 1.25 mg SC, Visit 7): 144 ng·h/mL
- AUC(0-4 h) Min ([2]; 1.25 mg SC, Visit 7): 39 ng·h/mL
- Cmax % CV ([2]; 1.25 mg SC, Visit 7): 33%
- Cmax Max ([2]; 1.25 mg SC, Visit 7): 150 ng/mL
- Cmax Mean ([2]; 1.25 mg SC, Visit 7): 60 ng/mL
- Cmax Median ([2]; 1.25 mg SC, Visit 7): 60 ng/mL
- Cmax Min ([2]; 1.25 mg SC, Visit 7): 18 ng/mL
- AUC(0-2 h) % CV ([2]; 1.75 mg SC, Visit 5): 23%
- AUC(0-2 h) Max ([2]; 1.75 mg SC, Visit 5): 171 ng·h/mL
- AUC(0-2 h) Min ([2]; 1.75 mg SC, Visit 5): 17 ng·h/mL
- AUC(0-4 h) % CV ([2]; 1.75 mg SC, Visit 5): 29%
- AUC(0-4 h) Max ([2]; 1.75 mg SC, Visit 5): 289 ng·h/mL
- AUC(0-4 h) Median ([2]; 1.75 mg SC, Visit 5): 179 ng·h/mL
- AUC(0-4 h) Min ([2]; 1.75 mg SC, Visit 5): 25 ng·h/mL
- Cmax % CV ([2]; 1.75 mg SC, Visit 5): 25%
- Cmax Mean ([2]; 1.75 mg SC, Visit 5): 77 ng/mL
- Cmax Median ([2]; 1.75 mg SC, Visit 5): 78 ng/mL
- AUC(0-2 h) % CV ([2]; 1.75 mg SC, Visit 7): 25%
- AUC(0-2 h) Max ([2]; 1.75 mg SC, Visit 7): 176 ng·h/mL
- AUC(0-2 h) Median ([2]; 1.75 mg SC, Visit 7): 111 ng·h/mL
- AUC(0-2 h) Min ([2]; 1.75 mg SC, Visit 7): 28 ng·h/mL
- AUC(0-4 h) % CV ([2]; 1.75 mg SC, Visit 7): 25%
- AUC(0-4 h) Max ([2]; 1.75 mg SC, Visit 7): 276 ng·h/mL
- AUC(0-4 h) Mean ([2]; 1.75 mg SC, Visit 7): 184 ng·h/mL
- AUC(0-4 h) Median ([2]; 1.75 mg SC, Visit 7): 180 ng·h/mL
- AUC(0-4 h) Min ([2]; 1.75 mg SC, Visit 7): 72 ng·h/mL
- Cmax % CV ([2]; 1.75 mg SC, Visit 7): 25%
- Cmax Max ([2]; 1.75 mg SC, Visit 7): 127 ng/mL
- Cmax Mean ([2]; 1.75 mg SC, Visit 7): 78 ng/mL
- Cmax Median ([2]; 1.75 mg SC, Visit 7): 77 ng/mL
- Cmax Min ([2]; 1.75 mg SC, Visit 7): 27 ng/mL
- Cmax % CV ([2]; 1.75 mg subcutaneous dose): 25%
- median Cmax ([2]; 1.75 mg subcutaneous dose): 78 ng/mL
- vaginal pulse amplitude measures ([3]; compared to placebo): without statistically relevant differences, compared to placebo
- reported feelings of sexual arousal [3]: statistically relevant reported feelings of sexual arousal
